Legend:
Format in all cases: in vivo
[1] = test system: Johnsongrass (Sorghum halepense, SORHA); test: Pre-emerge greenhouse herbicide test, phytotoxicity rating; settings: 14 days after application, rating scale 0-100
Outline: (§1)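 Visual 0–100 injury rating (100 = all plants dead) taken 14 days after treatment. Rates of 125–1000 g ai/ha in acetone, 187 l/ha, were sprayed onto soil one day post-sowing; pots were surface-watered to incorporate, then bottom-watered.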

[2] = test system: barnyardgrass (Echinochloa crusgalli, ECHCG); test: as above; settings: 14 days after application, rating scale 0-100
Outline: as §1

[3] = test system: common ragweed (Ambrosia artemisiifolia L., AMBEL); test: as above; settings: 14 days after application, rating scale 0-100
Outline: as §1

[4] = test system: green foxtail (Setaria viridis, SETVI); test: as above; settings: 14 days after application, rating scale 0-100
Outline: as §1

[5] = test system: ivyleaf morningglory (Ipomoea hederacea, IPOHE); test: as above; settings: 14 days after application, rating scale 0-100
Outline: as §1

[6] = test system: lambsquarters (Chenopodium album, CHEAL); test: as above; settings: 14 days after application, rating scale 0-100
Outline: as §1

[7] = test system: large crabgrass (Digitaria sanguinalis, DIGSA); test: as above; settings: 14 days after application, rating scale 0-100
Outline: as §1

[8] = test system: redroot pigweed (Amaranthus retroflexus, AMARE); test: as above; settings: 14 days after application, rating scale 0-100
Outline: as §1

[9] = test system: sicklepod (Cassia obtusifolia, CASOB); test: as above; settings: 14 days after application, rating scale 0-100
Outline: as §1

[10] = test system: velvetleaf (Abutilon theophrasti, ABUTH); test: as above; settings: 14 days after application, rating scale 0-100
Outline: as §1

[11] = test system: field corn (Zea mays L., var. Dekalb 535, CORN); test: Pre-emerge greenhouse test, crop damage rating; settings: 14 days after application, rating scale 0-100
Outline: as §1

[12] = test system: upland rice (Oryza sp., var.Tebonnet, RICE); test: Pre-emerge greenhouse test, crop damage rating; settings: 14 days after application, rating scale 0-100
Outline: as §1

[13] = test system: soybean (Glycine max L., var. Pella 86, SOY); test: Pre-emerge greenhouse test, crop damage rating; parameters: key to SOY crop damage rating: 0 = no damage, 100 = complete death of all plants; settings: 14 days after application, rating scale 0-100
Outline: as §1

[14] = test system: common ragweed (Ambrosia artemisiifolia L., AMBEL); test: Post-emerge greenhouse herbicide test, phytotoxicity rating; settings: 14 days after application; for phytotoxicity rating AMBEL: scale 0-100
Outline: (§2)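 Scores use a 0 (no damage) to 100 (complete kill) scale, taken 14 days after a foliar spray. Acetone solutions with 0.25% v/v non-ionic surfactant were applied by track sprayer at 187 l/ha and 63-1000 g ai/ha to bottom-watered 2-3 leaf plants.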

[15] = test system: Johnsongrass (Sorghum halepense, SORHA); test: as above; settings: 14 days after application; for phytotoxicity rating SORHA: scale 0-100
Outline: as §2

[16] = test system: barnyardgrass (Echinochloa crusgalli, ECHCG); test: as above; settings: 14 days after application; for phytotoxicity rating ECHCG: scale 0-100
Outline: as §2

[17] = test system: green foxtail (Setaria viridis, SETVI); test: as above; settings: 14 days after application; for phytotoxicity rating SETVI: scale 0-100
Outline: as §2

[18] = test system: ivyleaf morningglory (Ipomoea hederacea, IPOHE); test: as above; settings: 14 days after application; for phytotoxicity rating IPOHE: scale 0-100
Outline: as §2

[19] = test system: lambsquarters (Chenopodium album, CHEAL); test: as above; settings: 14 days after application; for phytotoxicity rating CHEAL: scale 0-100
Outline: as §2

[20] = test system: large crabgrass (Digitaria sanguinalis, DIGSA); test: as above; settings: 14 days after application; for phytotoxicity rating DIGSA: scale 0-100
Outline: as §2

[21] = test system: redroot pigweed (Amaranthus retroflexus, AMARE); test: as above; settings: 14 days after application; for phytotoxicity rating AMARE: scale 0-100
Outline: as §2

[22] = test system: velvetleaf (Abutilon theophrasti, ABUTH); test: as above; settings: 14 days after application; for phytotoxicity rating ABUTH: scale 0-100
Outline: as §2

[23] = test system: field corn (Zea mays L., var. Dekalb 535, CORN); test: Post-emerge greenhouse test, crop damage rating; settings: 14 days after application; for crop damage rating CORN: scale 0-100
Outline: as §2

[24] = test system: upland rice (Oryza sp., var.Tebonnet, RICE); test: Post-emerge greenhouse test, crop damage rating; settings: 14 days after application; for crop damage rating RICE: scale 0-100
Outline: as §2

[25] = test system: soybean (Glycine max L., var. Pella 86, SOY); test: Post-emerge greenhouse test, crop damage rating; parameters: key to crop damage rating SOY: 0-100 scale: 0 = no damage, 100 = complete death of all plants; settings: 14 days after application; for crop damage rating SOY: scale 0-100
Outline: as §2

SMILES: N#Cc1cc([N+](=O)[O-])ccc1Oc1cc(-n2c(=O)n3n(c2=S)CCCC3)c(F)cc1Cl [Compound 8-12]
- phytotoxicity rating SORHA ([1]; 125 g ai/ha): 0
- phytotoxicity rating SORHA ([1]; 500 g ai/ha): 40
- phytotoxicity rating ECHCG ([2]; 125 g ai/ha): 0
- phytotoxicity rating ECHCG ([2]; 500 g ai/ha): 0
- phytotoxicity rating AMBEL ([3]; 125 g ai/ha): 90
- phytotoxicity rating AMBEL ([3]; 500 g ai/ha): 90
- phytotoxicity rating SETVI ([4]; 125 g ai/ha): 0
- phytotoxicity rating SETVI ([4]; 500 g ai/ha): 70
- phytotoxicity rating IPOHE ([5]; 125 g ai/ha): 0
- phytotoxicity rating IPOHE ([5]; 500 g ai/ha): 70
- phytotoxicity rating CHEAL ([6]; 125 g ai/ha): 100
- phytotoxicity rating CHEAL ([6]; 500 g ai/ha): 100
- phytotoxicity rating DIGSA ([7]; 125 g ai/ha): 0
- phytotoxicity rating DIGSA ([7]; 500 g ai/ha): 50
- phytotoxicity rating AMARE ([8]; 125 g ai/ha): 90
- phytotoxicity rating AMARE ([8]; 500 g ai/ha): 100
- phytotoxicity rating CASOB ([9]; 125 g ai/ha): 0
- phytotoxicity rating CASOB ([9]; 500 g ai/ha): 0
- phytotoxicity rating ABUTH ([10]; 125 g ai/ha): 95
- phytotoxicity rating ABUTH ([10]; 500 g ai/ha): 100
- crop damage rating CORN ([11]; 125 g ai/ha): 0
- crop damage rating CORN ([11]; 500 g ai/ha): 0
- crop damage rating RICE ([12]; 125 g ai/ha): 20
- crop damage rating RICE ([12]; 500 g ai/ha): 50
- crop damage rating SOY ([13]; 125 g ai/ha): 0
- crop damage rating SOY ([13]; 500 g ai/ha): 0
- AMBEL phytotoxicity rating (0-100) ([14]; 63 g al/ha): 50
- AMBEL phytotoxicity rating (0-100) ([14]; 500 g al/ha): 70
- SORHA phytotoxicity rating (0-100) ([15]; 63 g al/ha): 0
- SORHA phytotoxicity rating (0-100) ([15]; 500 g al/ha): 50
- ECHCG phytotoxicity rating (0-100) ([16]; 63 g al/ha): 0
- ECHCG phytotoxicity rating (0-100) ([16]; 500 g al/ha): 40
- SETVI phytotoxicity rating (0-100) ([17]; 63 g al/ha): 0
- SETVI phytotoxicity rating (0-100) ([17]; 500 g al/ha): 30
- IPOHE phytotoxicity rating (0-100) ([18]; 63 g al/ha): 80
- IPOHE phytotoxicity rating (0-100) ([18]; 500 g al/ha): 70
- CHEAL phytotoxicity rating (0-100) ([19]; 63 g al/ha): 80
- CHEAL phytotoxicity rating (0-100) ([19]; 500 g al/ha): 70
- DIGSA phytotoxicity rating (0-100) ([20]; 63 g al/ha): 0
- DIGSA phytotoxicity rating (0-100) ([20]; 500 g al/ha): 0
- AMARE phytotoxicity rating (0-100) ([21]; 63 g al/ha): 70
- AMARE phytotoxicity rating (0-100) ([21]; 500 g al/ha): 100
- ABUTH phytotoxicity rating (0-100) ([22]; 63 g al/ha): 100
- ABUTH phytotoxicity rating (0-100) ([22]; 500 g al/ha): 100
- CORN crop damage rating (0-100) ([23]; 63 g al/ha): 0
- CORN crop damage rating (0-100) ([23]; 500 g al/ha): 0
- RICE crop damage rating (0-100) ([24]; 63 g al/ha): 0
- RICE crop damage rating (0-100) ([24]; 500 g al/ha): 30
- SOY crop damage rating (0-100) ([25]; 63 g al/ha): 50
- SOY crop damage rating (0-100) ([25]; 500 g al/ha): 60

SMILES: O=c1n(-c2cc(Oc3ccccn3)c(Cl)cc2F)c(=S)n2n1CCCC2 [Compound 8-17]
- SORHA phytotoxicity rating ([1]; Rate 125 g al/ha): 50
- SORHA phytotoxicity rating ([1]; Rate 500 g al/ha): 100
- ECHCG phytotoxicity rating ([2]; Rate 125 g al/ha): 85
- ECHCG phytotoxicity rating ([2]; Rate 500 g al/ha): 100
- AMBEL phytotoxicity rating ([3]; Rate 125 g al/ha): 100
- AMBEL phytotoxicity rating ([3]; Rate 500 g al/ha): 100
- SETVI phytotoxicity rating ([4]; Rate 125 g al/ha): 100
- SETVI phytotoxicity rating ([4]; Rate 500 g al/ha): 100
- IPOHE phytotoxicity rating ([5]; Rate 125 g al/ha): 80
- IPOHE phytotoxicity rating ([5]; Rate 500 g al/ha): 99
- CHEAL phytotoxicity rating ([6]; Rate 125 g al/ha): 100
- CHEAL phytotoxicity rating ([6]; Rate 500 g al/ha): 100
- DIGSA phytotoxicity rating ([7]; Rate 125 g al/ha): 100
- DIGSA phytotoxicity rating ([7]; Rate 500 g al/ha): 100
- AMARE phytotoxicity rating ([8]; Rate 125 g al/ha): 100
- AMARE phytotoxicity rating ([8]; Rate 500 g al/ha): 100
- CASOB phytotoxicity rating ([9]; Rate 125 g al/ha): 100
- CASOB phytotoxicity rating ([9]; Rate 500 g al/ha): 80
- ABUTH phytotoxicity rating ([10]; Rate 125 g al/ha): 100
- ABUTH phytotoxicity rating ([10]; Rate 500 g al/ha): 100
- CORN crop damage rating ([11]; Rate 125 g al/ha): 10
- CORN crop damage rating ([11]; Rate 500 g al/ha): 30
- RICE crop damage rating ([12]; Rate 125 g al/ha): 50
- RICE crop damage rating ([12]; Rate 500 g al/ha): 95
- SOY crop damage rating ([13]; Rate 125 g al/ha): 0
- SOY crop damage rating ([13]; Rate 500 g al/ha): 95
- phytotoxicity rating AMBEL ([14]; rate 63 g ai/ha): 60
- phytotoxicity rating AMBEL ([14]; rate 500 g ai/ha): 100
- phytotoxicity rating SORHA ([15]; rate 63 g ai/ha): 50
- phytotoxicity rating SORHA ([15]; rate 500 g ai/ha): 100
- phytotoxicity rating ECHCG ([16]; rate 63 g ai/ha): 90
- phytotoxicity rating ECHCG ([16]; rate 500 g ai/ha): 100
- phytotoxicity rating SETVI ([17]; rate 63 g ai/ha): 50
- phytotoxicity rating SETVI ([17]; rate 500 g ai/ha): 90
- phytotoxicity rating IPOHE ([18]; rate 63 g ai/ha): 100
- phytotoxicity rating IPOHE ([18]; rate 500 g ai/ha): 100
- phytotoxicity rating CHEAL ([19]; rate 63 g ai/ha): 99
- phytotoxicity rating CHEAL ([19]; rate 500 g ai/ha): 100
- phytotoxicity rating DIGSA ([20]; rate 63 g ai/ha): 50
- phytotoxicity rating DIGSA ([20]; rate 500 g ai/ha): 90
- phytotoxicity rating AMARE ([21]; rate 63 g ai/ha): 100
- phytotoxicity rating AMARE ([21]; rate 500 g ai/ha): 100
- phytotoxicity rating ABUTH ([22]; rate 63 g ai/ha): 100
- phytotoxicity rating ABUTH ([22]; rate 500 g ai/ha): 100
- crop damage rating CORN ([23]; rate 63 g ai/ha): 20
- crop damage rating CORN ([23]; rate 500 g ai/ha): 10
- crop damage rating RICE ([24]; rate 63 g ai/ha): 40
- crop damage rating RICE ([24]; rate 500 g ai/ha): 90
- crop damage rating SOY ([25]; rate 63 g ai/ha): 90
- crop damage rating SOY ([25]; rate 500 g ai/ha): 100

— US6479435B1, “Diaryl ethers and processes for their preparation and herbicidal and desiccant compositions containing them” (ISK Americas Incorporated, priority 1997, dated 2002)
